From patent US20020173491A1, “DAPD combination therapy with inosine monophosphate dehydrogenase inhibitor” (priority 2000, published 2002)
Like-named read-outs stand apart in the source and are kept apart here.

How the values were obtained:
xxLAI strain of HIV-1 [1] = assay: microbe, parasite or virus in culture; format: cell-based; conditions: for Fold difference in EC50, 0.1 μM MPA: control vs with 0.1 μM MPA; for Fold difference in EC50, 0.25 μM MPA: control vs with 0.25 μM MPA (fold decrease); for Fold difference in EC50, 5 μM RBV: control vs with 5 μM RBV; for Fold difference in EC50, 10 μM RBV: control vs with 10 μM RBV
Method: Triplicate samples of compound were tested. MT2 cells were infected with xxLAI at a multiplicity of infection (MOI) of 0.03 for 3 hours at 37° C. in 5% CO2. The infected cells were plated at 3.0×10^4/well into a 96 well plated containing drug dilutions and incubated for 5 days at 37° C. in CO2. […] This method has been modified into a susceptibility assay and has been used in a variety of in vitro antiviral tests and is readily adaptable to any system with a lytic virus (Weislow, O. S., et. al. 1989). Using the absorption values of the cell controls as 100% protection and no drug, virus infected cells as 0% protection, a dose response curve is generated by plotting % protection on the Y axis and drug concentration on the X axis. From this curve EC50 values were determined.
Assays were performed in the MT2 cell line as described above in the XXT sensitivity assay section.
MPA was tested for activity against the xxLAI strain of HIV-1 in the laboratory adapted cell line MT2. Dilutions of MPA were made in cell culture media in a 96 well plate; the highest concentration tested was 1 μM. Triplicate samples of compound were tested. MT2 cells were infected with xxLAI at a multiplicity of infection (MOI) of 0.03 for 3 hours at 37° C. in 5% CO2. The infected cells were plated at 3.0×10^4/well into a 96 well plated containing drug dilutions and incubated for 5 days at 37° C. in CO2. The antiviral activity of MPA was determined using the XTT assay described above. This method has been modified into a susceptibility assay and has been used in a variety of in vitro antiviral tests and is readily adaptable to any system with a lytic virus (Weislow, O. S., et. al. 1989). Using the absorption values of the cell controls as 100% protection and no drug, virus infected cells as 0% protection, a dose response curve is generated by plotting % protection on the Y axis and drug concentration on the X axis. From this curve EC50 values were determined.
The concentrations of MPA used were 1, 0.5, 0.25, 0.1, and 0.01 μM. Assays were performed in the MT2 cell line as described in section 3.1.

xxLAI strain of HIV-1 [2] = assay: microbe, parasite or virus in culture; format: cell-based; conditions: for effect of addition of 0.25 μM MPA on anti-HIV activity in PBMCs / Fold difference in EC50, 0.1 μM MPA / Fold difference in EC50, 0.25 μM MPA / effect of addition of 20 μM RBV on anti-HIV activity in PBMCs / Fold difference in EC50, 5 μM RBV / Fold difference in EC50, 10 μM RBV / Fold difference in EC50, 20 μM RBV: PBMC; for effect of addition of 0.25 μM MPA on anti-HIV activity in PBMCs / effect of addition of 20 μM RBV on anti-HIV activity in PBMCs: all the concentrations tested; for Fold difference in EC50, 0.1 μM MPA: control vs with 0.1 μM MPA; for Fold difference in EC50, 0.25 μM MPA: control vs with 0.25 μM MPA; for Fold difference in EC50, 5 μM RBV: control vs with 5 μM RBV; for Fold difference in EC50, 10 μM RBV: control vs with 10 μM RBV; for Fold difference in EC50, 20 μM RBV: control vs with 20 μM RBV
Method: In this assay, cell supernatants were incubated on microelisa wells coated with antibodies to HIV-1 p24 core antigen. Subsequently, anti-HIV-1 conjugate labeled with horseradish peroxidase was added. The labeled antibody bound to the solid phase antibody/antigen complexes previously formed. Addition of the tetramethylbenzidine substrate results in blue color formation. The color turned yellow when the reaction is stopped. The plates were then analyzed on a plate reader set at 490 nm. The absorbance is a direct measurement of the amount of HIV-1 produced in each well and a decrease in color indicates decreased viral production. […] PBMC were obtained from HIV-1 negative donors by banding on Ficoll gradients, stimulated with phytohemaglutinin (PHAP) for 48 hours prior to infection with HIV-1, and infected with virus for 4 hours at 37° C. at a MOI of 0.001. […] Plates were incubated for 3 days at 37° C. The concentration of virus in each well was determined using the NEN p24 assay. Using the absorption values of the cell controls as 100% protection and drug free, virus infected cells as 0% protection, a dose response curve is generated by plotting percent protection on the Y axis and drug concentration on the X axis. From this curve, EC50 values were determined.
Compound dilutions and assay conditions were as described above.
MPA was also tested for activity against the xxLAI strain of HIV-1 in PBMCs using a p24 based Elisa assay. In this assay, cell supernatants are incubated on microelisa wells coated with antibodies to HIV-1 p24 core antigen. Subsequently, anti-HIV-1 conjugate labeled with horse radish peroxidase is added. The labeled antibody binds to the solid phase antibody/antigen complexes previously formed. Addition of the tetramethylbenzidine substrate results in blue color formation. The color turns yellow when the reaction is stopped. The plates are then analyzed on a plate reader set at 490 nm. The absorbance is a direct measurement of the amount of HIV-1 produced in each well and a decrease in color indicates decreased viral production. Dilutions of MPA were made in cell culture media in a 96 well plate, the highest concentration of MPA tested was 1 μM. PBMC were obtained from HIV-1 negative donors by banding on Ficoll gradients, stimulated with phytohemaglutinin (PHAP) for 48 hours prior to infection with HIV-1, and infected with virus for 4 hours at 37° C. at a MOI of 0.001. Infected cells were seeded into 96 well plates containing 4-fold serial dilutions of MPA. Plates were incubated for 3 days at 37° C. The concentration of virus in each well was determined using the NEN p24 assay. Using the absorption values of the cell controls as 100% protection and drug free, virus infected cells as 0% protection, a dose response curve is generated by plotting % protection on the Y axis and drug concentration on the X axis. From this curve EC50 values were determined.
Compound dilutions and assay conditions were as described above. The concentrations of MPA used were 1, 0.5, 0.25, 0.1, and 0.01 μM.

[3] = read-out: Mean EC50, 0.01 μM MPA, MT2 cells, with 0.01 μM MPA
[4] = read-out: Mean EC50, 0.1 μM MPA, MT2 cells, with 0.1 μM MPA
[5] = read-out: Mean EC50, 0.01 μM MPA, PMBCs, with 0.01 μM MPA
[6] = read-out: Mean EC50, 0.1 μM MPA, PMBCs, with 0.1 μM MPA
[7] = Human immunodeficiency virus 1, MT2, read-out: Mean EC50, Control, MT2 cells, no MPA
[8] = Human immunodeficiency virus 1, MT2, read-out: Mean EC50, Control, MT2 cells, no RBV
[9] = read-out: Mean EC50, 0.25 μM MPA, MT2 cells, with 0.25 μM MPA
[10] = read-out: Mean EC50, 5 μM RBV, MT2 cells, with 5 μM RBV
[11] = read-out: Mean EC50, 10 μM RBV, MT2 cells, with 10 μM RBV
[12] = read-out: Mean EC50, 20 μM RBV, MT2 cells, with 20 μM RBV
[13] = Human immunodeficiency virus 1, PBMC, read-out: Mean EC50, Control, PMBCs, no MPA
[14] = Human immunodeficiency virus 1, PBMC, read-out: Mean EC50, Control, PMBCs, no RBV
[15] = read-out: Mean EC50, 0.25 μM MPA, PMBCs, with 0.25 μM MPA
[16] = read-out: Mean EC50, 1 μM RBV, PMBCs, with 1 μM RBV
[17] = read-out: Mean EC50, 5 μM RBV, PMBCs, with 5 μM RBV
[18] = read-out: Mean EC50, 10 μM RBV, PMBCs, with 10 μM RBV
[19] = read-out: Mean EC50, 20 μM RBV, PMBCs, with 20 μM RBV

| Compound | Fold difference in EC50, 0.1 μM MPA (xxLAI strain of HIV-1 [1]; MT2 cells) | EC50 (xxLAI strain of HIV-1 [1]; [3]) | EC50 (xxLAI strain of HIV-1 [1]; [4]) | effect of addition of 0.25 μM MPA on anti-HIV activity in PBMCs (xxLAI strain of HIV-1 [2]; with 0.25 μM MPA) | Fold difference in EC50, 0.1 μM MPA (xxLAI strain of HIV-1 [2]) | Fold difference in EC50, 0.25 μM MPA (xxLAI strain of HIV-1 [2]) | EC50 (xxLAI strain of HIV-1 [2]; [5]) | EC50 (xxLAI strain of HIV-1 [2]; [6]) | EC50 (xxLAI strain of HIV-1 [1]; [7]) | EC50 (xxLAI strain of HIV-1 [1]; [8]) | Fold difference in EC50, 0.25 μM MPA (xxLAI strain of HIV-1 [1]; MT2 cells) | Fold difference in EC50, 5 μM RBV (xxLAI strain of HIV-1 [1]; MT2 cells) | Fold difference in EC50, 10 μM RBV (xxLAI strain of HIV-1 [1]; MT2 cells) | EC50 (xxLAI strain of HIV-1 [1]; [9]) | EC50 (xxLAI strain of HIV-1 [1]; [10]) | EC50 (xxLAI strain of HIV-1 [1]; [11]) | EC50 (xxLAI strain of HIV-1 [1]; [12]) | EC50 (xxLAI strain of HIV-1 [2]; [13]) | EC50 (xxLAI strain of HIV-1 [2]; [14]) | effect of addition of 20 μM RBV on anti-HIV activity in PBMCs (xxLAI strain of HIV-1 [2]; with 20 μM RBV) | other results |
| --- | --- | --- | --- | --- | --- | --- | --- | --- | --- | --- | --- | --- | --- | --- | --- | --- | --- | --- | --- | --- | --- |
| Nc1nc(=O)n([C@@H]2CS[C@H](CO)O2)cc1F [FTC] | 1 fold | 620 nM | 620 nM | little effect | 1.2 fold | 1.8 fold | 8 nM | 9.3 nM |  |  |  |  |  |  |  |  |  |  |  |  | EC50 (xxLAI strain of HIV-1 [1]; MT2 cells, no MPA, read-out: Mean EC50, Control): 600 nM; EC50 (xxLAI strain of HIV-1 [1]; MT2 cells, with 0.25 μM MPA, read-out: Mean EC50, 0.25 μM MPA): 400 nM; EC50 (xxLAI strain of HIV-1 [2]; PMBCs, no MPA, read-out: Mean EC50, Control): 11 nM; EC50 (xxLAI strain of HIV-1 [2]; PMBCs, with 0.25 μM MPA, read-out: Mean EC50, 0.25 μM MPA): 6 nM |
| Cc1cn([C@H]2C[C@H](N=[N+]=[N-])[C@@H](CO)O2)c(=O)[nH]c1=O [AZT, 3′-azido-3′-deoxy-thymidine] | 0.5 fold | 300 nM | 800 nM | little effect | 1.5 fold | 1.8 fold | 2.6 nM | 2.1 nM | 420 nM | 1700 nM | 0.44 fold | 0.37 fold | 0.29 fold | 950 nM | 4600 nM | 5900 nM | > 10000 nM | 3.1 nM | 3 nM | little effect | fold increase in the apparent EC50 (xxLAI strain of HIV-1 [1]; MT2 cells, addition of 0.25 μM MPA): 2.3 fold; Fold difference in EC50, 1 μM RBV (xxLAI strain of HIV-1 [1]; MT2 cells, control vs with 1 μM RBV): 0.59 fold; Fold difference in EC50, 20 μM RBV (xxLAI strain of HIV-1 [1]; MT2 cells, control vs with 20 μM RBV (fold decrease)): <0.17 fold; EC50 (xxLAI strain of HIV-1 [1]; read-out: Mean EC50, 1 μM RBV, MT2 cells, with 1 μM RBV): 2900 nM; Fold difference in EC50, 5 μM RBV (xxLAI strain of HIV-1 [2]): 1.2 fold; Fold difference in EC50, 10 μM RBV (xxLAI strain of HIV-1 [2]): 1.4 fold; Fold difference in EC50, 20 μM RBV (xxLAI strain of HIV-1 [2]): 1.4 fold; EC50 (xxLAI strain of HIV-1 [2]; [15]): 1.7 nM; EC50 (xxLAI strain of HIV-1 [2]; [16]): 3.5 nM; EC50 (xxLAI strain of HIV-1 [2]; [17]): 2.6 nM; EC50 (xxLAI strain of HIV-1 [2]; [18]): 2.2 nM; EC50 (xxLAI strain of HIV-1 [2]; [19]): 2.1 nM |
| Nc1nc(NC2CC2)c2ncn([C@H]3C=C[C@@H](CO)C3)c2n1 [Abacavir] | 1 fold |  |  | completely inhibited HIV replication | 3.2 fold | >50 fold | 1100 nM | 380 nM | 2400 nM | 4700 nM | 1.7 fold | 0.68 fold | 0.73 fold | 1400 nM | 6900 nM | 6400 nM | 5700 nM | 1200 nM | 540 nM | completely inhibited HIV replication | fold difference in the apparent EC50 on addition of RBV (xxLAI strain of HIV-1 [1]; MT2 cells, addition of RBV): less than 2 fold; Fold difference in EC50, 5 μM RBV (xxLAI strain of HIV-1 [2]): 4.9 fold; Fold difference in EC50, 10 μM RBV (xxLAI strain of HIV-1 [2]): 18 fold; Fold difference in EC50, 20 μM RBV (xxLAI strain of HIV-1 [2]): >18 fold; EC50 (xxLAI strain of HIV-1 [2]; [15]): < 0.5 nM; EC50 (xxLAI strain of HIV-1 [2]; [16]): 200 nM; EC50 (xxLAI strain of HIV-1 [2]; [17]): 110 nM; EC50 (xxLAI strain of HIV-1 [2]; [18]): 30 nM; EC50 (xxLAI strain of HIV-1 [2]; [19]): < 30 nM |
